Assay results taken from patent US11628166B2, “Therapeutic uses of compounds having combined sert, 5-HT3 and 5-HT1a activity” (H. Lundbeck A/S, priority 2007, dated 2023).

Legend:
[1] = Contextual fear conditioning in rats; format: in vivo, rat; details: for time spent freezing during the retention test: test 24 h after acquisition
Text: The compound administered in the present experiment was 1-[2-(2,4-dimethylphenyl-sulfanyl)phenyl]piperazine HBr salt.
We have studied the effect of the compound on acquisition, consolidation and recall of contextual fear conditioning in rats. In the fear conditioning paradigm animals learn to associate a neutral environment (context, the training chamber, CS) with an aversive experience (an electrical foot-shock, US). During re-exposure to the training chamber, animals express a freezing behaviour, which is taken as a direct measure of the fear-related memory [Pavlov J. Biol. Sci., 15, 177-182, 1980]. […] Neurosci., 106, 274-285, 1992].
Adult male Sprague-Dawley rats (weighing 250-300 g at time of training) from Charles River Laboratories, housed two per cage under a 12 h light/dark cycle, were used. Food and water were available ad libitum. Rats were used 1 week after arrival. The compound was dissolved in 10% HPbetaCD and injected subcutaneously. The drug was administered in a volume of 2.5 ml/kg.
Training and testing were conducted in a soundproof chamber (30×20×40 cm) housed in an isolated room and connected to a ventilation system. Illumination was provided by a white light (60 Watt). The floor of the chamber consisted of a metal grid attached to an electric shock generator. Prior to training and testing, the chamber was cleaned with a 70% ethanol solution. A video camera allowed for behavioral observations and recording of the training session for off-line analysis.
During the acquisition animals were allowed to freely explore the novel environment for a 1 min habituation period, which co-terminated with one inescapable foot-shock (unconditioned stimulus, US) through the electrifiable grid floor. […] Animals remained in the conditioning chamber for another 60 s after the US. Freezing behaviour was scored during the first 58 s (pre-shock acquisition; experimenter blinded to groups) to determine baseline-freezing responses to the context. At the end of the acquisition animals were gently removed and placed into their home cages. After 24 h the same animals were reintroduced into the training context (fear conditioning chamber) and a 2 min retention test was performed. During this period no foot shocks were applied. Freezing behaviour was scored during the whole test period with the experimenter blinded to groups and presented as percent of total test period.

[2] = Microdialysis, extracellular acetylcholine levels in brain of freely moving rats; format: in vivo, rat; details: 2.5-10 mg/kg s.c.
Experimental: The animals were administered 1-[2-(2,4-dimethylphenylsulfanyl)phenyl]piperazine, HBr salt.
Male Sprague-Dawley rats, initially weighing 275-300 g, were used. The animals were housed under a 12-hr light/dark cycle under controlled conditions for regular in-door temperature (21±2° C.) and humidity (55±5%) with food and tap water available ad libitum.
Rats were anaesthetised with hypnorm/dormicum (2 ml/kg) and intracerebral guide cannulas (CMA/12) were stereotaxically implanted into the brain, aiming at positioning the dialysis probe tip in the ventral hippocampus (co-ordinates: 5.6 mm posterior to bregma, lateral −5.0 mm, 7.0 mm ventral to dura) or in the prefrontal cortex (co-ordinates: 3.2 mm anterior to bregma; lateral, 0.8 mm; 4.0 mm ventral to dura). […] The body temperature of the animals was monitored by rectal probe and maintained at 37° C. […]
The compound dissolved in 10% HPbetaCD and injected subcutaneously (2.5-10 mg/kg). Doses are expressed as mg salt/kg body weight. […]
Concentration of acetylcholine (ACh) in the dialysates was analysed by means of HPLC with electrochemical detection using a mobile phase consisting of 100 mM disodium hydrogenphosphate, 2.0 mM octane sulfonic acid, 0.5 mM tetramethylammonium chloride and 0.005% MB (ESA), pH 8.0. […] The latter was detected electrochemical by using a platinum electrode (Analytical cell: ESA, model 5040). […]

[3] = Hygroscopicity / water absorption on exposure to humidity; format: physicochemical
Solubility in water = format: physicochemical
[4] = Mouse intradermal formalin test; format: in vivo; details: ~20-30 minutes after formalin
Experimental: In this model, mice receive an injection of formalin (4.5%, 20 μl) into the left hind paw. The irritation caused by the formalin injection elicits a characteristic biphasic behavioural response, as quantified by the amount of time spent licking the injured paw.
The first phase (˜0-10 minutes) represents direct chemical irritation and nociception, whereas the second phase (˜20-30 minutes) is thought to represent pain of […] origin. The two phases are separated by a quiescent period in which behaviour returns to normal. The effectiveness of test compounds to reduce the painful stimuli is assessed by counting the amount of time spent licking the injured paw in the two phases.

[5] = Clinical trial, HAM-D items 4, 5 and 6 (insomnia early, middle, late); format: in vivo, human; details: 5 and 10 mg daily vs placebo, 6 weeks, approx. 100 patients per arm
Experimental: (§1) The HAM-D scale may be used to assess the severity of depression in patients by means of a 24 items questionnaire. Item 4, 5 and 6 of the scale relate to how the patients sleep, i.e., is it easy to fall asleep (insomnia Early), does the patient wake up during the night (Insomnia Middle), and does the patient wake up early in the morning (Insomnia Late). The compound was tested at 5 and 10 mg daily against placebo with approximately 100 patients per arm. […] It is well-known that sleep disturbances are a general adverse effect of most antidepressants. In particular SSRI's and compounds which inhibit the noradrenaline transporter are reported to give rise to problems with sleep initiation and maintenance and problems with insomnia are also often reported [Int.Clin.Psychpharm., 21 (suppl 1), S25-S29, 2006]. Others report that such compounds give rise to suppressed REM sleep, increased sleep latency, less efficient sleep, increase in nocturnal awakenings, and fragmentation of sleep [Hum.Psychopharm.Clin.Exp., 20, 533-559, 2005].

[6] = target: Human serotonin transporter (Homo sapiens, UniProt P31645); experiment: Human serotonin transporter, blockade of 5-HT uptake; format: biochemical
Chain of Human serotonin transporter (P31645 whole entry): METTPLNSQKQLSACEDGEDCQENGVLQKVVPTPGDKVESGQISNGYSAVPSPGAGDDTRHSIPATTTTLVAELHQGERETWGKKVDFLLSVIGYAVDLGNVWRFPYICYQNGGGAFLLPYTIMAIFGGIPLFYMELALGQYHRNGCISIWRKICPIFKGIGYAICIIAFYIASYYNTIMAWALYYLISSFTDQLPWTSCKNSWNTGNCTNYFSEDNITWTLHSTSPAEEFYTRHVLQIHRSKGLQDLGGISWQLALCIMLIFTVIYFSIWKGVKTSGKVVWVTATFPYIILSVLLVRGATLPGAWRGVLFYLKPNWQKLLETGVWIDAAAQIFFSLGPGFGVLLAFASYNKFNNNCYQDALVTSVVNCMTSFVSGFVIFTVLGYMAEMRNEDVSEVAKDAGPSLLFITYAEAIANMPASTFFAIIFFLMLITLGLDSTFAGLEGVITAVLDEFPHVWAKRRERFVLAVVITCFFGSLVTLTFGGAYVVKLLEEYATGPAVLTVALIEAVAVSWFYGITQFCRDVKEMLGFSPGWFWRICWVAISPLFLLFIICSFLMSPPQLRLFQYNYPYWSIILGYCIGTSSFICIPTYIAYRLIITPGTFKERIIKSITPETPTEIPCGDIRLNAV

[7] = Clinical trial, sexually related adverse effects reported by patients; format: in vivo, human
Experimental: as §1
The above mentioned clinical trial also captured sexual adverse effects reported by the patients.

In the case of `Br.Cc1ccc(Sc2ccccc2N2CCNCC2)c(C)c1` [1-[2-(2,4-dimethylphenylsulfanyl)phenyl]piperazine HBr salt], the “time spent freezing during the retention test” value ([1]; 5 mg/kg s.c. 1 h prior to acquisition, n=6) is reported as 39.24±13.76%, the “freezing behaviour during the memory test” value ([1]; 5 mg/kg s.c. 1 h prior to the retention test, n=9, p<0.05) is reported as 12.86±3.57% and the “time spent freezing during the retention test” value ([1]; 5 mg/kg s.c. after the acquisition session, n=8, p<0.05) is reported as 45.58±4.50%. For the same compound, the “time spent freezing during the retention test” value ([1]; 10 mg/kg s.c. 1 h prior to acquisition, n=10, p<0.01) was 52.15±5.68%, the “baseline freezing behaviour before the foot shock” value ([1]; 1, 5 and 10 mg/kg s.c., 1 h prior to acquisition) was “does not affect baseline freezing behaviour” and the “extra-cellular levels of ACh in prefrontal cortex” value ([2]; rat prefrontal cortex) was “significantly increased”. For the same compound, the “extra-cellular levels of ACh in ventral hippocampus” value ([2]; rat ventral hippocampus) was “significantly increased”.

With `Cc1ccc(Sc2ccccc2N2CCNCC2)c(C)c1` [Crystalline base, 1-[2-(2,4-dimethylphenylsulfanyl)-phenyl]piperazine] the hygroscopicity [3] was “not hygroscopic”.

For `Br.Cc1ccc(Sc2ccccc2N2CCNCC2)c(C)c1` [alpha form of the hydrobromide], the solubility in water (Solubility in water) was 2000 µg/mL.

Compound `Br.Cc1ccc(Sc2ccccc2N2CCNCC2)c(C)c1` [beta form of the hydrobromide] has a solubility in water (Solubility in water) of 1200 µg/mL.

In the case of `Cc1ccc(Sc2ccccc2N2CCNCC2)c(C)c1` [compound I, 1-[2-(2,4-dimethylphenyl-sulfanyl)-phenyl]piperazine], the “second phase pain scores (time spent licking the paw)” value [4] is reported as “significant reduction”, the “change in sleep pattern, HAM-D items 4-6” value [5] is reported as “large and dose dependent improvement of the sleep pattern” and the IC50 [6] is reported as 5.4 nM. For the same compound, the “number of patients reporting Anorgasmia” value ([7]; 5 mg daily) was 0, the “number of patients reporting Ejaculation delayed” value ([7]; 5 mg daily) was 0 and the “number of patients reporting Erectile dysfunction” value ([7]; 5 mg daily) was 0. The “number of patients reporting Libido decreased” value ([7]; 5 mg daily) was 1, the “number of patients reporting Loss of libido” value ([7]; 5 mg daily) was 1 and the “number of patients reporting Orgasm abnormal” value ([7]; 5 mg daily) was 0. For the same compound, the “number of patients reporting Orgasmic sensation decreased” value ([7]; 5 mg daily) was 0, the “number of patients reporting Anorgasmia” value ([7]; 10 mg daily) was 0 and the “number of patients reporting Ejaculation delayed” value ([7]; 10 mg daily) was 0. The “number of patients reporting Erectile dysfunction” value ([7]; 10 mg daily) was 0, the “number of patients reporting Libido decreased” value ([7]; 10 mg daily) was 1 and the “number of patients reporting Loss of libido” value ([7]; 10 mg daily) was 0. The “number of patients reporting Orgasm abnormal” value ([7]; 10 mg daily) was 0 and the “number of patients reporting Orgasmic sensation decreased” value ([7]; 10 mg daily) was 0.

For `Br.Cc1ccc(Sc2ccccc2N2CCNCC2)c(C)c1` [gamma form of the hydrobromide], the water absorbed ([3]; 30% RH at room temperature) was “about 2%”.

In the case of `Br.Cc1ccc(Sc2ccccc2N2CCNCC2)c(C)c1` [hemi hydrate of the hydrobromide], the water content ([3]; room temperature and 95% RH) is reported as “about 3.7%”.
